# Values quoted from earlier work, collected in PMC11599114 (Viruses, 2024).
# Tested on: influenza A virus(oseltamivir-resistant strain)
# Parameters: method as in ref 30447229
# Details: MDCK
sequence,measurement,value
KFFRKKSVKK [DRAVPe01822],EC50,18.9 ± 7 µM
